Measurements taken from paper PMC4780864, “Family-wide Structural Analysis of Human Numb-Associated Protein Kinases” (Structure(London, England:1993), 2016).

Legend:
Assay in all cases: biochemical
BIKE = biological target: T1, BIKE (Homo sapiens, UniProt Q9NSY1); design: Thermal shift assay (DSF, SYPRO Orange), 2 uM kinase domain, mean delta Tm of triplicates versus DMSO; conditions: read-out: BIKE
T1 construct: gene BMP2K; catalytic domain-containing construct
Procedure: (§1) All measurements were performed in triplicate and mean values were reported for all compounds (Table S1). […] However, NAKs are often omitted from selectivity panels, including commercial screens.

MPSK1 = biological target: T2, MPSK1 (Homo sapiens, UniProt O75716); design: Thermal shift assay (DSF, SYPRO Orange), 2 uM kinase domain, mean delta Tm of triplicates versus DMSO; conditions: for ΔTm at 12.5 µM: read-out: MPSK1; for MPSK1: 12.5 µM
T2 construct: gene STK16; catalytic domain-containing construct
Procedure: as §1

GAK = biological target: T3, GAK (Homo sapiens, UniProt O14976); design: Thermal shift assay (DSF, SYPRO Orange), 2 uM kinase domain, mean delta Tm of triplicates versus DMSO; conditions: read-out: GAK
T3 construct: catalytic domain-containing construct
T3 sequence (O14976 1-1311): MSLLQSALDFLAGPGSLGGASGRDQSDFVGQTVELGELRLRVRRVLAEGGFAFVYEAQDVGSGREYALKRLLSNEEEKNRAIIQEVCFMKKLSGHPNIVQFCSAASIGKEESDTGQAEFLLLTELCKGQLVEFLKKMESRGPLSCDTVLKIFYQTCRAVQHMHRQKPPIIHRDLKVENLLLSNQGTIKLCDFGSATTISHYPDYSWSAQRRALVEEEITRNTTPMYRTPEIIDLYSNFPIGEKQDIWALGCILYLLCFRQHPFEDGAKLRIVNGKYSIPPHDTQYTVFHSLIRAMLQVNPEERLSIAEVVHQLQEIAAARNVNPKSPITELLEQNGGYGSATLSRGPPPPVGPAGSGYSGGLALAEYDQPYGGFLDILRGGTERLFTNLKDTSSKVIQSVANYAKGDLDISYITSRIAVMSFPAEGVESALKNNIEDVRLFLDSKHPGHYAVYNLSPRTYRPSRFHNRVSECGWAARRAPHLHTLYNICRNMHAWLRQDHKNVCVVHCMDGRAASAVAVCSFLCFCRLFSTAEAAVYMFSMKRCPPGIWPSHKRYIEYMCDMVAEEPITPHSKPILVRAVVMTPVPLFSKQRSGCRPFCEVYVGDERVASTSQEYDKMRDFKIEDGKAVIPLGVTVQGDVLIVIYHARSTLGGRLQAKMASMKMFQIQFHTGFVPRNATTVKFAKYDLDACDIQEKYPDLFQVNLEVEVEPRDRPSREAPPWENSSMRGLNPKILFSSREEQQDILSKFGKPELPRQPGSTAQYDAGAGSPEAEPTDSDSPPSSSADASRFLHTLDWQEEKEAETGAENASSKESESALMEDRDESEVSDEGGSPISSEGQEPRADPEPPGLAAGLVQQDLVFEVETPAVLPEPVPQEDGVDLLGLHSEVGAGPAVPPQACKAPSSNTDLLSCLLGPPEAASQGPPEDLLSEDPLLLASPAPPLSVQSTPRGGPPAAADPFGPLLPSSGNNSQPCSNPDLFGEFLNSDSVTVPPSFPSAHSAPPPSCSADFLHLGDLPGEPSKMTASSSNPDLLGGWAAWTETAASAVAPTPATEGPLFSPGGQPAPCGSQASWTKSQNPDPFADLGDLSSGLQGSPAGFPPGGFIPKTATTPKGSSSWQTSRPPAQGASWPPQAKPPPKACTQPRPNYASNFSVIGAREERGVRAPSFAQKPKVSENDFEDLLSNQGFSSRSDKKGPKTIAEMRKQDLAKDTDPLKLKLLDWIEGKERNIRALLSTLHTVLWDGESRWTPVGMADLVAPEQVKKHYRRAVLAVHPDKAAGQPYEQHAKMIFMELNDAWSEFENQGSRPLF
Procedure: as §1

AAK1 = AAK1 (Homo sapiens, UniProt Q2M2I8); design: kinase domain; Thermal shift assay (DSF, SYPRO Orange), 2 uM kinase domain, mean delta Tm of triplicates versus DMSO; conditions: for ΔTm at 12.5 µM: read-out: AAK1
Procedure: as §1

Sequence of AAK1 (Q2M2I8 27-365 limits assumed): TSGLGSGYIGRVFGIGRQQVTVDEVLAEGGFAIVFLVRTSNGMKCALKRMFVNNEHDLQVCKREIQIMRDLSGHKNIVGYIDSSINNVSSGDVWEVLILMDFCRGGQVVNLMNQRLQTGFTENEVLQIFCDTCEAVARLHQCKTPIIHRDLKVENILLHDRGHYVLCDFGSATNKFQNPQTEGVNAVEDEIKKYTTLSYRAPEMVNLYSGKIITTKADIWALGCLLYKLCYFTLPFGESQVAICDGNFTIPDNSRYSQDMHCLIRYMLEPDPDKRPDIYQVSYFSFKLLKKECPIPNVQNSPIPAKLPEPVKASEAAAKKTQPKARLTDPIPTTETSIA
T1 sequence (Q9NSY1 whole entry, the tested form may be a part): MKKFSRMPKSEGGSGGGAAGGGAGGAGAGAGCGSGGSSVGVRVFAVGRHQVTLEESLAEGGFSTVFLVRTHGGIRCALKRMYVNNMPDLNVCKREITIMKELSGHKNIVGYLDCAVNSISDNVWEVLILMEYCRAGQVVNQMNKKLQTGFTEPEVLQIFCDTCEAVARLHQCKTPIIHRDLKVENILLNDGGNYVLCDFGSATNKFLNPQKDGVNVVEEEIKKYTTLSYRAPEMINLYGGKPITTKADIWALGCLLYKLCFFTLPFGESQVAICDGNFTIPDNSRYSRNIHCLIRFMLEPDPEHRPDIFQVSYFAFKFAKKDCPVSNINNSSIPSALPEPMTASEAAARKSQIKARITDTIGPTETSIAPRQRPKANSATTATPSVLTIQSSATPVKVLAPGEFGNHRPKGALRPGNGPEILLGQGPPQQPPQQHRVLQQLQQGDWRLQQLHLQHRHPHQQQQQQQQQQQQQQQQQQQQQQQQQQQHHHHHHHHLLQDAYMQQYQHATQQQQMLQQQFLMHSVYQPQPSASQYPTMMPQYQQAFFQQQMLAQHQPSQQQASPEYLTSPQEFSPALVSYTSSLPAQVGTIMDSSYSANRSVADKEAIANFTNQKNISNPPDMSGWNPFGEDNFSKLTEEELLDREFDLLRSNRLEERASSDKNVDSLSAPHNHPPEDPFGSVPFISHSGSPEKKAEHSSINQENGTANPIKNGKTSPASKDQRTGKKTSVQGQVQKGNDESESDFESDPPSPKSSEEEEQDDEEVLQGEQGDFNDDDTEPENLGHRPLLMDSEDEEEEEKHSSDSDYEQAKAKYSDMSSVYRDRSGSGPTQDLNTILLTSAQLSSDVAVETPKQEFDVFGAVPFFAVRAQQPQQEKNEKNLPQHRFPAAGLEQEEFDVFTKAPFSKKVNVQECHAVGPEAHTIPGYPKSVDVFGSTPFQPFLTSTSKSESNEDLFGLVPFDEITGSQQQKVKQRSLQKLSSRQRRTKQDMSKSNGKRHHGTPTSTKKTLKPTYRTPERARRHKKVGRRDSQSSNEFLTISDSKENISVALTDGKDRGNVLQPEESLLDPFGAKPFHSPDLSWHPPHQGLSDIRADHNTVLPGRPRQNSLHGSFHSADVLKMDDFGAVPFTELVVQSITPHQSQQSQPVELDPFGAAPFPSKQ
T2 sequence (O75716 whole entry, the tested form may be a part): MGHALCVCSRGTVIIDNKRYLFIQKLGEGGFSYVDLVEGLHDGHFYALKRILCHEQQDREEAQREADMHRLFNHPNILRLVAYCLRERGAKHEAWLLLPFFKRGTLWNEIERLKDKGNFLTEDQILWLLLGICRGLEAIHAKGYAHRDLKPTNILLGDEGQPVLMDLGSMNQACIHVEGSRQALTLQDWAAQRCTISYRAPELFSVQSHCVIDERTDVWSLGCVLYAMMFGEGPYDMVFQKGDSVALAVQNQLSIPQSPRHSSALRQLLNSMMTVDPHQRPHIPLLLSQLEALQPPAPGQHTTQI

Row | SMILES | ΔTm at 12.5 µM (BIKE) | ΔTm at 12.5 µM (MPSK1) | ΔTm at 12.5 µM (GAK) | ΔTm at 12.5 µM (AAK1) | MPSK1 (MPSK1) | AAK1 (AAK1; 12.5 µM)
1 | COc1cc(F)c(F)c(Nc2ccc(I)cc2F)c1NS(=O)(=O)C1(C[C@H](O)CO)CC1 [Refametinib] | -0.02 °C | 0.663 °C | -1.26 °C | -0.0333 °C |  | 
2 | Cc1cccc(-c2nn3c(c2-c2ccnc4ccc(C(N)=O)cc24)CCC3)n1 [Galunisertib] | 0.583 °C | 0.97 °C | 3.39 °C | 0.47 °C |  | 
3 | Cc1cc(Nc2nc(N[C@@H](C)c3ncc(F)cn3)ncc2Cl)[nH]n1 [AZD1480] | 6.41 °C | 5.04 °C | 0.667 °C | 4.44 °C |  | 
4 | CN[C@@H]1C[C@H]2O[C@@](C)([C@@H]1OC)n1c3ccccc3c3c4c(c5c6ccccc6n2c5c31)C(=O)N[C@H]4O [UCN-01] | 13.1 °C | 4.49 °C | 4.03 °C | 9.91 °C |  | 
5 | COc1cc2nccc(Oc3ccc(NC(=O)NC4CC4)c(Cl)c3)c2cc1C(N)=O [Lenvatinib] | 2.49 °C | 1.5 °C | 2.03 °C | 2.07 °C |  | 
6 | CN(C)C/C=C/C(=O)Nc1cc2c(Nc3ccc(F)c(Cl)c3)ncnc2cc1O[C@H]1CCOC1 [Afatinib] | 1.95 °C | 0.897 °C | 3.38 °C | 1.31 °C |  | 
7 | C[C@]12O[C@H](C[C@]1(O)CO)n1c3ccccc3c3c4c(c5c6ccccc6n2c5c31)CNC4=O [Lestaurtinib] | 16.5 °C | 11.1 °C | 10.8 °C | 13.6 °C |  | 
8 | CCS(=O)(=O)N1CC(CC#N)(n2cc(-c3ncnc4[nH]ccc34)cn2)C1 [baricitinib] | 10.2 °C |  | 2.06 °C |  | 4.053 °C | 8.293 °C
9 | CNC(=O)c1cc(Oc2ccc(NC(=O)Nc3ccc(Cl)c(C(F)(F)F)c3)cc2)ccn1 [Sorafenib] | 0.73 °C | 0.873 °C | 5.42 °C | 1.03 °C |  | 
10 | Cc1cc2c(F)c(Oc3ncnn4cc(OC[C@@H](C)O)c(C)c34)ccc2[nH]1 [Brivanib] | 0.81 °C | 0.977 °C | 0.347 °C | 1.34 °C |  | 
11 | COc1cc(O)c2c(c1)/C=C/C[C@H](O)[C@H](O)C(=O)/C=C\C[C@H](C)OC2=O [(5Z)-7-oxozeaenol, (3S,5Z,8S,9S,11E)-3,4,9,10-tetrahydro-8,9,16-trihydroxy-14-methoxy-3-methyl-1H-2-benzoxacyclotetradecin-1,7(8H)-dione] | 14 °C | 1.09 °C | 16.7 °C | 11.4 °C |  | 
12 | CNC(=O)c1c(F)cccc1Nc1nc(Nc2cc3c(ccn3C(=O)CN(C)C)cc2OC)nc2[nH]ccc12 [GSK1838705A] | 0.543 °C | 1.27 °C | 0.74 °C | 0.143 °C |  | 
13 | C#Cc1cccc(Nc2ncnc3cc(OCCOC)c(OCCOC)cc23)c1 [Erlotinib] | 5.66 °C | 0.883 °C | 3.74 °C | 2.7 °C |  | 
14 | N#CC[C@H](C1CCCC1)n1cc(-c2ncnc3[nH]ccc23)cn1 [Ruxolitinib] | 8.65 °C |  | 2.88 °C | 6.18 °C | 5.233 °C | 
15 | CC[C@H](CO)Nc1nc(NCc2ccccc2)c2ncn(C(C)C)c2n1 [Seliciclib] | 0.43 °C | 2.4 °C | -0.34 °C | 0.393 °C |  | 
16 | COc1cc2/c(=N/c3ccc(Br)cc3F)nc[nH]c2cc1OCC1CCN(C)CC1 [Vandetanib] | 0.127 °C | 1.1 °C | 1.75 °C | 1.05 °C |  | 
17 | C[C@@H]1CCN(C(=O)CC#N)C[C@@H]1N(C)c1ncnc2[nH]ccc12 [Tofacitinib] | 2.18 °C | 1.35 °C | -0.58 °C | 0.68 °C |  | 
18 | Nc1ncnc2c1c(COc1cccc(Cl)c1)nn2C1CCOCC1 [PF-4800567] | 0.437 °C | 0.933 °C | -0.663 °C | 0.283 °C |  | 
19 | CNC(=O)c1cccc(-c2ccc3c(N4CCOC[C@@H]4C)nc(N4CCOC[C@@H]4C)nc3n2)c1 [AZD2014] | 0.477 °C | 1.12 °C | -0.433 °C | 0.373 °C |  | 
20 | Cn1cnc2c(F)c(Nc3ccc(Br)cc3Cl)c(C(=O)NOCCO)cc21 [Selumetinib] | 0.227 °C | 0.797 °C | -0.847 °C | 0.343 °C |  | 

Next, values leading:

Row | ΔTm at 12.5 µM (BIKE) | ΔTm at 12.5 µM (MPSK1) | ΔTm at 12.5 µM (GAK) | ΔTm at 12.5 µM (AAK1) | MPSK1 (MPSK1) | AAK1 (AAK1; 12.5 µM) | SMILES
21 | 14 °C | 12.4 °C | 8.95 °C | 10.6 °C |  |  | Cc1cnc(Nc2ccc(OCCN3CCCC3)cc2)nc1Nc1cccc(S(=O)(=O)NC(C)(C)C)c1 [Fedratinib]
22 | 1.76 °C | 0.373 °C | 0.46 °C | 0.0867 °C |  |  | O=C(Cc1ccc(-c2ccc(OCCN3CCOCC3)cc2)cn1)NCc1ccccc1 [KX2-391]
23 | 0.13 °C | -0.0133 °C | 0.227 °C | -0.16 °C |  |  | CCc1cc(Nc2nccc(-c3c(-c4ccc(OC)c(C(=O)Nc5c(F)cccc5F)c4)nc4ccccn34)n2)c(OC)cc1N1CCC(N2CCN(S(C)(=O)=O)CC2)CC1 [GSK1904529A]
24 | 0.763 °C | 0.66 °C | -0.197 °C | 0.41 °C |  |  | CCN1CCN(c2ccc(Nc3cc(N(C)C(=O)Nc4c(Cl)c(OC)cc(OC)c4Cl)ncn3)cc2)CC1 [NVP-BGJ398]
25 | 2.93 °C | 2.24 °C | 13 °C | 2.99 °C |  |  | Cc1ccc(C(=O)Nc2ccc(CN3CCN(C)CC3)c(C(F)(F)F)c2)cc1C#Cc1cnc2cccnn12 [Ponatinib]
26 | 0.16 °C | 0.217 °C | -0.607 °C | -0.103 °C |  |  | Cc1ccc(-n2nc(C(C)(C)C)cc2NC(=O)Nc2ccc(OCCN3CCOCC3)c3ccccc23)cc1 [Doramapimod]
27 | 0.873 °C | 1.49 °C | -0.05 °C | 0.747 °C |  |  | Cn1c(=O)n(-c2ccc(C(C)(C)C#N)cc2)c2c3cc(-c4cnc5ccccc5c4)ccc3ncc21 [Dactolisib]
28 | 1.32 °C | 1.87 °C | 2.36 °C | 1.13 °C |  |  | COc1cc2c(Oc3ccc(NC(=O)C4(C(=O)Nc5ccc(F)cc5)CC4)cc3F)ccnc2cc1OCCCN1CCOCC1 [Foretinib]
29 | 13 °C | 8.84 °C | 7.69 °C | 8.29 °C |  |  | O=C(O)c1ccc(-c2c[nH]c3ncc(-c4ccccc4)cc23)cc1C1CCCC1 [GSK650394]
30 | 12 °C | 10.7 °C | 3.35 °C | 5.22 °C |  |  | CCS(=O)(=O)c1cccc(-c2cc(C(=O)NC3CCN(C)CC3)c(C)c3[nH]c4ncc(C)cc4c23)c1 [TAK-901]
31 | 0.707 °C | 0.907 °C | 9.94 °C | 0.473 °C |  |  | CNC(=O)c1cc(Oc2ccc(NC(=O)Nc3cc(C(C)(C)C)nn3-c3ccc4ncccc4c3)c(F)c2)ccn1 [Rebastinib]
32 | 7.61 °C | 6.33 °C | 0.58 °C | 1.78 °C |  |  | COC(=O)c1ccc2c(c1)NC(=O)/C2=C(\Nc1ccc(N(C)C(=O)CN2CCN(C)CC2)cc1)c1ccccc1 [nintedanib]
